Assay results as given in article PMC5589893, “Identification of Aspergillus fumigatus UDP-Galactopyranose Mutase Inhibitors” (Scientific Reports, 2017).
Like-named read-outs stand apart in the source and are kept apart here.

Columns and labels:
A. fumigatus [1] = assay: Toxicity study, growth in PDA medium at 37 °C; type: cell-based, Aspergillus fumigatus; settings: for A. fumigatus toxicity: 1000 µM; for A. fumigatus toxicity under optimal growth conditions: 600 and 1000 µM, 24-48 h
A. fumigatus [2] = assay: Congo red susceptibility assay; type: cell-based, Aspergillus fumigatus; settings: 100 µM compound with congo red (0.5 and 1 mg/mL), 48 h, 37 °C
S. aureus strains = settings: cited from earlier work
A. fumigatus UGM [3] = target: T1, A. fumigatus UGM (Aspergillus fumigatus, UniProt Q4W1X2); assay: biochemical; type: biochemical; settings: for Type of Inhibition: NADPH oxidation at different concentrations of inhibitor and NADPH; for Inhibition of NADPH oxidation: absence of UDP-Galf
T1 construct: 8x His-tag (TEV-cleavable) (cleaved yes); made in house; host or cells: E. coli BL21 Turbo (DE3)
T1 sequence (Q4W1X2 whole entry): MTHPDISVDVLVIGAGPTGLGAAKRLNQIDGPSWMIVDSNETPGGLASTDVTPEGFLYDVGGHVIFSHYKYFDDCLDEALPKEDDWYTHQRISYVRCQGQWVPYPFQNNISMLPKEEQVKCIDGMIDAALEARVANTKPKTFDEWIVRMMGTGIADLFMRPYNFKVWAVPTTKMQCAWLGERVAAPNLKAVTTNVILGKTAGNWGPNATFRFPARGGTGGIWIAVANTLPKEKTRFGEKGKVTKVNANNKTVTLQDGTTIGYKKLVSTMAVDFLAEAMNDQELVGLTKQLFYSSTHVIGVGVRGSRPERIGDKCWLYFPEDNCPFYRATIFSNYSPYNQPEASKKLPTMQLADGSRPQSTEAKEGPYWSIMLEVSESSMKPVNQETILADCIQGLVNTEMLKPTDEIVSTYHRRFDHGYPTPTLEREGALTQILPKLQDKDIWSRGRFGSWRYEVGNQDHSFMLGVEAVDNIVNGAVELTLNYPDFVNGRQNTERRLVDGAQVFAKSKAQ
Experimental: (§1) The reaction was quenched with the addition of 70 µL acetonitrile. […] Samples were run at a flow rate of 0.5 mL/min for 5 min. IC50 was also determined by following NADPH oxidation at 340 nm. […] Data was analyzed using KaleidaGraph software. […] Global fitting was performed with Graphpad Prims 6 software (La Jolla, CA).

A. fumigatus UGM [4] = target: T1, A. fumigatus UGM; assay: biochemical; type: binding; settings: for T•∆S / ∆G / ∆H: ITC, 25 °C
Experimental: Binding of inhibitors to UGM was measured with an Auto-ITC 200 ITC instrument. UGM was dialyzed in 50 mM potassium phosphate buffer, pH 7.0, for 2 h at 4 °C. In all cases, ligands were dissolved in dialysis buffer and protein and ligand were filtered with a […] membrane prior to loading. […] Inhibitor concentration in the syringe was 2 mM (2% DMSO), except for chrysin where the concentration was 600 µM (4% DMSO). […] Thermodynamic parameters were determined from ITC results using Microcal Origin version 7.0 (OriginLab) with the “ITC custom” add-on installed.

A. fumigatus [5] = assay: Thermotolerance study, growth in PDA at 50 °C; type: cell-based, Aspergillus fumigatus; settings: 1000 µM compound, 48 h at 50 °C, vs reference
[6] = tested on: UDP-glucuronosyltransferases; settings: cited from earlier work
A. fumigatus UGM [7] = target: T1, A. fumigatus UGM; assay: biochemical; type: biochemical; settings: for Inhibition of product formation, concentration dependence: UPLC at 20 and 200 µM compound, 2% DMSO; for Concentration effect: inhibition at 200 µM vs 20 µM compound, UPLC; for inhibition at 200 µM: read-out: Inhibition > 50 %
Experimental: as §1

A. fumigatus UGM [8] = target: T1, A. fumigatus UGM; assay: biochemical; type: binding; settings: 20 µM compound, 2% DMSO, 30 nM ADP-TAMRA, normalized to negative control; read-out: Normalized anisotropy (%)
Experimental: High-throughput screening of the Spectrum Collection library using the FP assay with the ADP-TAMRA[22] probe was performed at the Virginia Tech Center for Drug Discovery Screening Laboratory. 384 well plates (Greiner 784900) were used and the reaction volume was 15 µL using 25 mM HEPES buffer (pH 7.0). For the screening, 30 nM of ADP-TAMRA with 6.7 µM UGM (based on the Bradford assay) and 20 µM of library compound were used, with a final DMSO concentration of 2%. Fluorescence polarization measurements were performed with excitation at 544 nm and emission at 584 nm, using a wavelength cutoff of 570 nm. Anisotropy measurements were performed after 30 and 120 minutes of incubation at 25 °C. Anisotropy values were normalized to the values obtained in the negative control sample: UGM, ADP-TAMRA, and DMSO (high anisotropy values). The positive control consisted of ADP-TAMRA and DMSO (low anisotropy values). The Z prime (Z′) value was determined using equation (1) where, σN,P and μN,P represent the standard deviation and the mean value the of the negative and positive controls respectively.1 Z′=1−3(σN+σP)/|μN−μP|

UGM = target: T2, UGM (Aspergillus fumigatus, UniProt Q4W1X2); assay: ThermoFAD melting temperature assay; type: binding; settings: 20, 100 and 1000 µM compound, 2% DMSO, 1 mg/mL UGM
T2 construct: 8x His-tag (TEV-cleavable) (cleaved yes); made in house; host or cells: E. coli BL21 Turbo (DE3)
T2 sequence (Q4W1X2 whole entry): as above
Experimental: The melting temperature[25] of UGM was determined by measuring the FAD fluorescence as a function of temperature (20–90 °C, 1 °C step) following the reported ThermoFAD procedure. The reaction mix consisted of 20 µL of 1 mg/mL UGM, 2% DMSO in 50 mM potassium phosphate buffer, pH 7.0. As a reference and positive control, the Tm was calculated in the presence DMSO and UDP (10 mM). Different concentrations of inhibitors were added in the range of 0–1 mM at a final DMSO concentration of 2% in the above-mentioned buffer. All experiments were done in triplicate.

[9] = Precipitation / solubility observed in inhibition assays; type: physicochemical; settings: with 2% DMSO

Row | Structure (SMILES) | A. fumigatus toxicity (A. fumigatus [1]) | A. fumigatus toxicity under optimal growth conditions (A. fumigatus [1]) | Growth decrease with congo red (A. fumigatus [2]) | Type of Inhibition (A. fumigatus UGM [3]) | Inhibition of NADPH oxidation (A. fumigatus UGM [3]) | Kd (A. fumigatus UGM [4]) [µM] | T•∆S (A. fumigatus UGM [4]) [kcal/mol] | ∆G (A. fumigatus UGM [4]) [kcal/mol] | ∆H (A. fumigatus UGM [4]) [kcal/mol] | Delay in colony development (A. fumigatus [5]) | Effect on UDP-glucuronosyltransferases [6] | Inhibition of product formation, concentration dependence (A. fumigatus UGM [7]) | Concentration effect (A. fumigatus UGM [7]) | inhibition at 200 µM (A. fumigatus UGM [7]) [%] | remaining activity at 20 µM (A. fumigatus UGM [8]) [%] | Increase of Tm of UGM (UGM) | further results
1 | COc1ccc([C@@H]2CC(=O)c3c(O)cc(O)cc3O2)cc1O [(2S)-hesperetin] | no A. fumigatus toxicity | not toxic | ~ 50% | Competitive (NADPH) | inhibited NADPH oxidation | 31 ± 6 | 2.1 ± 0.2 | -6.1 ± 0.4 | -4.1 ± 0.4 | ~ 50% | inhibitory effect | concentration dependent potency | + | > 50 | 17 | ~ 2.7 °C | Biofilm formation inhibition (S. aureus strains): > 70%; Type of Inhibition (A. fumigatus UGM [3]; listed as (2S)-Hesperetin): competitive against NADPH
2 | O=C1C[C@@H](c2ccc(O)cc2)Oc2cc(O)cc(O)c21 [(2S)-naringenin] | no A. fumigatus toxicity | not toxic | ~ 30% | competitive against NADPH | inhibited NADPH oxidation | 65 ± 13 | 0.9 ± 0.3 | -5.7 ± 1.0 | -4.8 ± 1.0 | ~ 30% | inhibitory effect | concentration dependent potency | + | > 50 | 23 | ~ 2.7 °C | –
3 | O=c1cc(-c2ccccc2)oc2cc(O)cc(O)c12 [Chrysin] | – | – | – | – | did not inhibit NADPH oxidation | – | – | – | – | – | – | concentration dependent potency | + | > 50 | 48 | – | IC50 (A. fumigatus UGM [3]): > 1000 µM; Binding to UGM detected by ITC (A. fumigatus UGM [4]): nor was binding detected; IC50 (A. fumigatus UGM [7]): 24 ± 4 µM; enzyme activity at which the IC50 curve plateaued (A. fumigatus UGM [7]; UPLC IC50 curve saturating below full inhibition (chrysin at ~30 µM), 3 min): ~ 35%; Effect on Tm of UGM (UGM; vs UGM alone): no effect on Tm; Concentration above which compound precipitated [9]: above 100 µM
